The values below come from PubChem BioAssay AID2305 (GlaxoSmithKline (GSK), 2010).

The test system of this assay is P. falciparum 3D7 growth, pLDH absorbance. The experiment in a line: P. falciparum 3D7 growth inhibition, dose response, strain 3D7 (AID 2305).

A word on the IC50: it is the midpoint of a concentration-inhibition curve. The low end stands for inhibition by little substance, the high end for a need for much substance. On to `CC(=O)CSC(C=Cc1ccc(N(C)C)cc1)=Nc1ccccc1`, for which the IC50 worked out at 1120 nM.
The figure for `O=C(N[C@@H](CC1CCCCC1)C(=O)NCCN1CCCCC1)c1ccc(O)c(-c2ccc(Cl)c(Cl)c2)c1` is 150 nM; for `CCn1c(-c2nonc2N)nc2cnc(Oc3cccc(NC(=O)c4ccc(OCCCN5CCCCC5)cc4)c3)cc21` it is 930 nM.
In turn, `C=CCOc1ccc(C(=O)Nc2nonc2-c2ccc(OC)c(OC)c2)cc1` returned an IC50 of 640 nM.
Compound `CCS(=O)(=O)N1CCN(c2nc(-c3ccccc3)nc(COC)c2Cc2ccccc2F)CC1` had an IC50 of 1450 nM.
Regarding `O=S(=O)(NCCN1CCCC1)c1ccc(-c2cccc(CNCc3ccsc3)c2)s1`, the IC50 turned out to be 900 nM.
With `CN(C)C(CNc1ncnc2cc(Cl)ccc12)Cc1ccccc1` (configuration not stated), the IC50 was 870 nM.
`CN1CCN(c2cc(NC(=O)c3ccc(-c4ccc(C#N)cc4)cc3)ccc2Cl)CC1` returned an IC50 of 460 nM.
The figure for `C=CCNC(CCCCC)c1ccc(OCCOc2ccc(C(CCCCC)NCC=C)cc2)cc1` (configuration not stated) is 570 nM.
As to `O=C(Nc1cccc(CCNCc2ccccc2)c1)Nc1cccc2ccccc12`, the IC50 is 730 nM.
With `COc1cc2nc(N3CCC(CNC(=O)/C=C/c4cccc(C)c4)CC3)nc(N)c2cc1OC`, the IC50 is 680 nM.
`O=C(NCCCCN1CCC(c2ccc3ccccc3c2O)CC1)c1ccc(-c2ccc(Cl)cc2)cc1` registered an IC50 of 180 nM.
`CN(CCN)Cc1cccc(-c2ccc(-c3nc4ccc(C(F)(F)F)cc4[nH]3)s2)c1` came in with a half-maximal inhibitory concentration (IC50) of 1000 nM.
As to `Cc1cc(F)ccc1Nc1nc(N(C)c2ccccc2)c2cc(OCCN(C)C)ccc2n1`, the IC50 was 790 nM.
As to `COc1ccc2ccccc2c1CCCCN1CCN(CC(c2ccc(F)cc2)N2CCN(C3CCCC3)CC2)CC1` (configuration not stated), the IC50 is 770 nM.
Turning to `O=C1C(=Cc2cc(Cc3ccccc3)ccc2O)SC(=S)N1Cc1ccccc1`, the IC50 amounted to 940 nM.
In turn, `COc1ccc2c(NN=Cc3cccc(C)n3)cc(-c3ccccc3)nc2c1` yielded an IC50 of 750 nM.
With `COc1ccccc1N1CCN(CCCCNC(=O)c2ccc(NC(=O)c3cc(Cl)cc(Cl)c3)cc2)CC1`, the half-maximal inhibitory concentration (IC50) came to 460 nM.
Take `CCCNCc1ccc(-c2ccc(CN(CCOC)C(=O)CCC(=O)c3ccc(OC)c(F)c3)cc2)nc1`: the IC50 came out at 680 nM.
To `CCN(CC)CCN(Cc1ccc(-c2ccc(C(F)(F)F)cc2)cc1)C(=O)Cn1c(CCc2cccc(F)c2F)nc(=O)c2ccc(C(F)(F)F)cc21` belongs 780 nM; to `O=C(CCc1cnc[nH]1)Nc1ccc(-c2ccc(-c3nc4ccc(F)cc4[nH]3)cc2)cc1`, 690 nM.
To `COc1ccc(NC(=O)CSc2nc(-c3ccccc3Cl)ns2)cc1OC` belongs 760 nM; to `CCCCCN1CCN(Cc2cccc(NC(=O)c3ccc(Cl)c(Cl)c3)c2)CC1`, 860 nM; to `N#CC(c1cccc(Cl)c1)c1ccc2c(C(F)(F)F)cc(C(F)(F)F)nc2n1` (configuration not stated), 730 nM.
The compound `COc1ccccc1CNC(=O)CCn1c(=O)[nH]c2ccsc2c1=O` registered an IC50 of 1040 nM.
`Nc1nc(N)c2c(CCc3ccc(Cl)c(Cl)c3)cccc2n1`: the IC50 worked out at 670 nM.
In the case of `Cn1nc(-c2cccc(CN[C@@H]3CCc4ccc(O)cc43)c2)c2cnc(NCCCN3CCCC3)nc21`, the IC50 is 830 nM.
To `CN(C)CCNCc1cccc(-c2ccc3c(Nc4cc(O)c(Cl)cc4F)ccnc3c2)c1` belongs 550 nM; to `CC(C)NCc1cccc(-c2ccc(NC(=O)c3cccc(C#N)c3)cc2)c1`, 320 nM; to `Cc1cc(N[C@@H](CC(C)C)C(=O)NCCOc2ccccc2)nc(NCCc2ccccc2)n1`, 1510 nM.
On to `O=C(NC1CC1)c1ccc(N2CCC(Oc3ccc(F)cc3)CC2)nc1`, for which the half-maximal inhibitory concentration (IC50) was 1090 nM.
On to `Cc1cc(NCCc2ccccc2)nc(/N=C(\N)Nc2ccccc2Cl)n1`, for which the half-inhibitory concentration (IC50) amounted to 790 nM.
Take `Nc1ncc(Cc2cc(Cl)c(N)c3ncccc23)c(N)n1`: the IC50 is 1120 nM.
`O=[N+]([O-])c1ccc(Nc2nc(NCc3ccccc3)nc(NN=Cc3ccccc3[N+](=O)[O-])n2)cc1` came in with an IC50 of 160 nM.
On to `CCCc1cc([C@@H](O)[C@@H]2C[C@@H]3CCN2C[C@@H]3CC)c2ccccc2n1`, for which the IC50 was found to be 430 nM.
`CN(C)c1ccc(CN2CCC(NC(=O)c3ccc(-c4ccccc4F)s3)CC2)cc1` showed an IC50 of 1120 nM.
The figure for `CCN(CCCN1CCCCC1)c1cc(C)nc(Nc2ccc3c(c2)CCC3)n1` is 390 nM; for `COc1ccc2ncn(-c3ccc(C(N)=O)c(OCc4ccccc4C(F)(F)F)c3)c2c1` it is 540 nM; for `O=c1cc(NCCCNC2CCOc3c(I)cc(Cl)cc32)[nH]c2ccccc12` (configuration not stated) it is 830 nM.
The figure for `Cn1nc(-c2ccc(NC(=O)Nc3cc(C(F)(F)F)cc(C(F)(F)F)c3)c(F)c2)c2cnc(NCCN3CCOCC3)nc21` is 800 nM; for `COc1ccc(-c2cccc(NC(=O)c3ccc(Cl)cc3)c2)cc1CN1CCC(O)CC1` it is 790 nM; for `Cc1noc(C)c1-c1ccc2c(Nc3ccccc3C(C)(C)C)c(C(=O)NC3CCCC3)cnc2c1` it is 1040 nM.
Consider `O=C(Nc1ccc(-c2nc3ccccc3[nH]2)cc1)c1cccc([N+](=O)[O-])c1`, for which the IC50 worked out at 220 nM.
The compound `CC(=O)Nc1ccc(OCCCCN(Cc2ccccc2C(F)(F)F)c2ccc(C(F)(F)F)c(C#N)c2)c(Cl)c1` yielded an IC50 of 550 nM.
Turning to `Nc1cccc(-c2ccc3ccnc(N)c3c2)c1`, the IC50 was 800 nM.
For the compound `Cc1cc(C(=O)OCC(=O)Nc2c(C)n(C)n(-c3ccccc3)c2=O)c(C)n1-c1ccc(F)cc1`, the IC50 was 50 nM.
`COc1ccc(-c2ccc(NC(=O)c3ccc(C#N)cc3)cc2)cc1CN(C)CCN(C)C`: the IC50 was 660 nM.
Compound `Cc1cccc2[nH]c(-c3cccc(-c4cccc(NC(=O)C(C)CN5CCN(C)CC5)c4)c3)nc12` (configuration not stated) had an IC50 of 540 nM.
As for `CCN(CCCN1CCCCC1)c1cc(C)nc(Nc2ccc(Cl)c(C(F)(F)F)c2)n1`, the IC50 is 170 nM.
Compound `Cc1cc2c(cc1C(F)(F)F)N(C(=O)Nc1cc(C(=O)NCCN(C)C)cc(C(F)(F)F)c1)CC2` came in with an IC50 of 730 nM.
On to `CN1CCCC1CCCOC(=O)c1ccc(N)cc1` (configuration not stated), for which the IC50 is 920 nM.
Take `CCOc1ccc(C2CCN(CCCCNC(=O)c3ccc(NC(=O)c4ccc(Cl)cc4)cc3)CC2)c(OCC)c1`: the IC50 stood at 680 nM.
The compound `CC(C)CNCc1ccc(-c2ccc(CN(C(=O)Nc3ccccc3)C3CCN(Cc4ccccc4)CC3)cc2)cc1` displayed an IC50 of 680 nM.
Take `c1ccc(-c2nc(Nc3nc4ccccc4[nH]3)[nH]c2-c2ccccc2)cc1`: the IC50 came out at 620 nM.
`CC[C@@H]([C@@H](CC(C)C)C(=O)N[C@@H](CCCCNC(=O)OCc1ccccc1)C(=O)Nc1ccccn1)N(O)C=O`: the IC50 was 110 nM.
`O=C1C2=C(Nc3ccccc3SC2c2ccccc2)c2ccccc21` (configuration not stated) had an IC50 of 330 nM.
To `COc1ccc(CNC(=O)Nc2cc3cc(-c4ccc(CN5CCCC5)cc4)ccc3n3c(C)nnc23)cc1` belongs 650 nM; to `Cc1cnc(NCCc2ccc(F)cc2)nc1NCCC(=O)Nc1ccccc1`, 950 nM.
`COc1ccc2ncc(F)c(CCN3CCC(NCc4cc5c(cn4)OCCS5)CC3)c2c1` showed an IC50 of 780 nM.
To `CN1CCC(C(=O)Nc2ccc(-c3ccc(-c4nc5ccc(C(F)(F)F)cc5[nH]4)s3)cc2)CC1` belongs 990 nM; to `COc1ccc(-c2cccc(NC(=O)c3cccc(Cl)c3)c2)cc1CN1CCCN(C)CC1`, 230 nM.
`CC[C@H]1CN2CC[C@@H]1C[C@@H]2[C@@H](O)c1cc(-c2ccc(F)cc2)nc2ccc(OC)cc12` registered an IC50 of 110 nM.
